Series [1] deals with T1, Muc5B (Homo sapiens, UniProt Q9HC84).
T1 construct: 68, 70a/b and 76 all reduce MUC5B in human mucus samples; from tissue; host or cells: human mucus samples
Description: MUC5B reduction in human mucus samples. The series is classed as biochemical. An excerpt: (§1) This assay tests whether mucin has been reduced by mucolytic compounds. Various mucin-containing substrates (e.g. saliva, primary human bronchial epithelial (HBEs) cell mucus (either on cultures or harvested), and sputum) treated with our dithiol mucolytic compounds are quenched upon completion of the treatment period with a 10-fold excess of N-ethylmaleimide in order to alkylate any remaining active compound and to prevent further mucin reduction. A 10× concentrated sample loading buffer is diluted into each sample (lx TAE/5% glycerol/0.1% SDS/Bromophenol Blue). Samples (50 μg) were analyzed by electrophoresis on 0.9% agarose gels using a buffer system consisting of 1×TAE/0.1% SDS. The agarose gel was soaked for 15 min in 4×SSC (0.6 M NaCl, 60 mM Tri-sodium citrate dehydrate) containing 10 mM DTT before transferring the samples from the gel onto a nitrocellulose membrane by vacuum blotter. Unreduced and reduced Muc5B and Muc5AC were visualized on a LiCor Odyssey imaging detection system using a polyclonal antibody directed towards Muc5B.

For series [2], the system named is human bronchial epithelial cells (HBE). Description: HBE ADME assay. Conditions: four hours post-dose. Format: in vitro ADME. On the procedure:
This assay was designed to determine if our dithiol prodrug compounds would be retained on the apical surface of human bronchial epithelial cells (HBE) (i.e. they are predominately cell impermeant) and if the compounds could be metabolized to their active forms (i.e. are there relevant hydrolytic enzymes present). Towards this goal, 15 μL of 10 mM dithiol prodrug compound was added to the apical surface of HBEs. At indicated time points, mucus from the apical surface was isolated with a PBS wash that contained 10-fold excess of N-ethylmaleimide in order to alkylate any remaining active compound and to prevent further mucin reduction. In addition the HBE cells and basolateral media were isolated at each time point. The form (e.g., prodrug, active metabolite, oxidized metabolite) and location (apical, cellular, basolateral media) of each compound was analyzed by LC-MS.

Series [3] has as its system esterase. Description: Pro-drug DTNB assay after incubation with esterase. The series is classed as biochemical, porcine. The settings on record: for dependence of activation on amount of esterase: varying amounts of esterase. An excerpt: (§2) This assay was designed to determine whether prodrug caps added on to our dithiol mucolytic compounds can be cleaved from the molecule. If so, the outcome would be an “active” compound that is able to reduce the S—S bond in DTNB. When cleaved the resulting compound, NTB (2-nitro-5-thiobenzoate), is a colored product that can be measured spectrophotometrically at an absorbance of 412 nm (Abs412). Using the molar extinction coefficient of NTB and measured maximum Abs412, the molar amount of DTNB that reacted with our mucolytic agents can be calculated. Dithiol mucolytic compounds react at a 2:1 stoichiometric ratio with DTNB (i.e. 2 molecules of NTB are produced for every one molecule of a dithiol compound that is oxidized). Dithiol prodrugs were mixed at a final concentration of 22.5 μM with excess DTNB (100 μM final) in 1 mL 50 mM Tris-HCl buffer (pH 7.5) and maximum Abs412 was measured. In the absence of a purified hydrolytic enzyme (e.g. porcine liver esterase; Sigma), the amount of DTNB cleavage observed is an indicator for stability of the cap on the prodrug compound (i.e. if the prodrug remains intact in solution the Abs412=0). Next, 5 uL of esterase (bought as an ammonium sulfate suspension that is subsequently centrifuged to isolate the esterase and then dissolved in reaction buffer prior to assaying) is combined with excess DTNB (100 μM final) and 22.5 μM pro-drug in 1 mL 50 mM Tris-HCl buffer (pH 7.5). Cleavage of the prodrug cap can be visualized in real time via DTNB cleavage at Abs412 by the esterase-liberated dithiol molecule.

Series [4] can be described thus: Pro-drug DTNB assay without enzyme (reducing activity). Conditions: for reducing activity in DTNB assay without enzyme: no esterase added. Format: biochemical.
Description: as §2

A short description of series [5]: Stability of capped and uncapped compounds tested with DTNB. The series is classed as physicochemical. Conditions: 4 days at room temperature; tested before and after incubation with esterase. The text has this: This assay was designed to determine whether prodrug caps added on to our dithiol mucolytic compounds can be cleaved from the molecule. If so, the outcome would be an “active” compound that is able to reduce the S—S bond in DTNB. When cleaved the resulting compound, NTB (2-nitro-5-thiobenzoate), is a colored product that can be measured spectrophotometrically at an absorbance of 412 nm (Abs412). Using the molar extinction coefficient of NTB and measured maximum Abs412, the molar amount of DTNB that reacted with our mucolytic agents can be calculated. Dithiol mucolytic compounds react at a 2:1 stoichiometric ratio with DTNB (i.e. 2 molecules of NTB are produced for every one molecule of a dithiol compound that is oxidized). Dithiol prodrugs were mixed at a final concentration of 22.5 μM with excess DTNB (100 μM final) in 1 mL 50 mM Tris-HCl buffer (pH 7.5) and maximum Abs412 was measured. In the absence of a purified hydrolytic enzyme (e.g. porcine liver esterase; Sigma), the amount of DTNB cleavage observed is an indicator for stability of the cap on the prodrug compound (i.e. if the prodrug remains intact in solution the Abs412=0). […]

For series [6], the target named is T1, Muc5B. In words: Western blot analysis of HBE mucus, Muc5B. Format: cell-based. Conditions: single treatment, 10 mM.
Description: as §1
A general note: A western blot detects proteins with antibodies after separation by electrophoresis.

For series [7], the target named is T2, Muc5AC (Homo sapiens, UniProt P98088).
T2 construct: endogenous in cells; host or cells: primary human bronchial epithelial (HBE) cultures
In words: Western blot analysis of HBE mucus, Muc5AC. Format: cell-based. The settings on record: single treatment, 10 mM.
Description: as §1

Series [8] can be described thus: Elimination of inhaled 14C-labeled NAC from the lungs in animal studies. Format: in vivo. Conditions: inhaled or intranasal, administered by inhalation, animal studies (unpublished observation).
Series [9] concerns human aminopeptidase. In words: DTNB assay after incubation with human aminopeptidase. Format: biochemical. The settings on record: over an hour incubation, two concentrations of human aminopeptidase.

Structures can show the parent of a compound that is named as a salt.

The half-life is the time in which the quantity being followed falls by half.

Turning to `CC(=O)SCc1ccc(OCCN(C[C@@H](O)[C@@H](O)[C@H](O)[C@H](O)CO)C[C@@H](O)[C@@H](O)[C@H](O)[C@H](O)CO)cc1CSC(C)=O` [Compound 68, S,S′-((4-(2-(bis((2R,3R,4R,5R)-2,3,4,5,6-pentahydroxyhexyl)amino)ethoxy)-1,2-phenylene)bis(methylene)) diethanethioate hydrochloride], in [1], the “reduction of MUC5B in human mucus samples” value is listed as “reduce MUC5B”. In series [2], the “metabolism and oxidation on the apical surface of HBE cultures” value is “substantially metabolized and oxidized”; the “retention on the apical cell surface of HBE cultures” value is recorded as “substantially maintained on the apical cell surface”. The “dependence of activation on amount of esterase” value (from here on “dependence of activation”) in [3] is recorded as “concentration dependent increase in reaction rates”. Further, the “reducing activity in DTNB assay without enzyme” value in [4] is recorded as “does not reduce the disulfide bonds”.

As for `CC(=O)SCc1ccc(OCCN(C[C@H](O)[C@@H](O)[C@H](O)[C@H](O)CO)C[C@H](O)[C@@H](O)[C@H](O)[C@H](O)CO)cc1CSC(C)=O` [Compound 23, S,S′-((4-(2-(bis((2S,3R,4R,5R)-2,3,4,5,6-pentahydroxyhexyl)amino)ethoxy)-1,2-phenylene)bis(methylene)) diethanethioate], the “stability against oxidation tested with DTNB” value in series [5] is “prevents some but not all oxidation”. Moreover, the “reduction of Muc5B on the apical surface of HBE cultures” value in series [6] is given as “reduced”. The “dependence of activation” value in [3] was “Increasing amounts of esterase increased activation”. The “reduction of Muc5AC on the apical surface of HBE cultures” value in [7] is “reduced”.

On to `CC(=O)SCc1cc(OCCNC(=O)[C@@H](N)CCCCN)c(OCCNC(=O)[C@@H](N)CCCCN)cc1CSC(C)=O` [Compound 11, S,S′-((4,5-bis(2-((S)-2,6-diaminohexanamido)ethoxy)-1,2-phenylene)bis(methylene)) diethanethioate hydrochloride], for which the “activation by esterase in DTNB assay” value in [3] (low and high concentration of esterase, approximately 15 min incubation) is on record as “activated compound 11 to a similar level as compound 41”. Moreover, the “reducing activity in DTNB assay without enzyme” value in series [4] is “remained inactive”.

In [8], `CC(=O)N[C@@H](CS)C(=O)O` [NAC, N-acetyl cysteine] registered a half-life of roughly 20 min.

In the case of `NCCCC[C@H](N)C(=O)SCc1ccccc1CSC(=O)[C@@H](N)CCCCN` [Compound 35, (2S,2′S)—S,S′-(1,2-phenylenebis(methylene)) bis(2,6-diaminohexanethioate)HCl salt], in series [9], the “activation by aminopeptidase in DTNB assay” value was “does not completely activate the compound”.

For the molecule “S-4-(2-(bis((2R,3R,4R,5R)-2,3,4,5,6-pentahydroxyhexyl)amino)ethoxy)-2-(mercaptomethyl)benzyl ethanethioate hydrochloride and S-5-(2-(bis((2R,3R,4R,5R)-2,3,4,5,6-pentahydroxyhexyl)amino)ethoxy)-2-(mercaptomethyl)benzyl ethanethioate hydrochloride [70a/b]”, the “reduction of MUC5B in human mucus samples” value in series [1] was “reduce MUC5B”.

In the case of `Cl.OC[C@@H](O)[C@@H](O)[C@H](O)[C@H](O)CN(CCOc1ccc(CS)c(CS)c1)C[C@@H](O)[C@@H](O)[C@H](O)[C@H](O)CO` [Compound 76, (2R,2′R,3R,3′R,4R,4′R,5R,5′R)-6,6′-((2-(3,4-bis(mercaptomethyl)phenoxy)ethyl)azanediyl)bis(hexane-1,2,3,4,5-pentaol) hydrochloride], in series [1], the “reduction of MUC5B in human mucus samples” value is reported as “reduce MUC5B”. Also, in series [4] (no enzyme), the “time to fully reduce all available disulfides” value is less than 10 s.

For `CC(=O)SCc1ccccc1CSC(C)=O` [Compound 13, S,S′-(1,2-phenylenebis(methylene)) diethanethioate], the “amount of esterase giving full activation” value in [3] (DTNB assay) is recorded as no less than 0.015 units. Further, the “activation by esterase in DTNB assay” value in [3] (high concentration of esterase) is listed as “fully activated immediately”; in [3] (low concentration of esterase, 15 min incubation), “near fully activated”. In addition, the “dependence of activation” value in series [3] was “Increasing amounts of esterase correlated with increasing activation”.

The values above are taken from patent US10526283B2, “Prodrugs of dithiol mucolytic agents” (PARION SCIENCES, INC., priority 2015, dated 2020).
